Data from patent US20260325481A1, “THERAPY SELECTION AND TREATMENT OF NEURODEGENERATIVE DISORDERS” (Anavex Life Sciences Corp., priority 2022, published 2026).

Test system: patients with Parkinson's Disease with Dementia (PDD)
Experiment: ANAVEX 2-73-PDD-001 Phase 2 study (randomized, double blind, placebo-controlled) in Parkinson's Disease with Dementia
Assay type: in vivo, human
Description: In order to assess the safety, tolerability and efficacy of ANAVEX® 2-73 (blarcamesine) oral capsules in treating cognitive impairment in patients with Parkinson's Disease with Dementia (PDD), a phase 2 study, coded “ANAVEX® 2-73-PDD-001 study” (FIG. 1), was conducted. The study was multi-center, randomized, double blind, placebo-controlled, parallel group with 3-arm. The study included a 2-week Screening/Baseline Observation Period and a 14-week Treatment Period (including a 2 week Titration Period), and a 2-week Safety Follow-Up Period. A total of 132 patients were enrolled in the study and were randomly assigned to three testing arms (FIG. 1). In ANAVEX2-73 High Dose arm, 44 patients were given oral capsules of ANAVEX2-73 once daily in an escalating dose of 10 mg, 20 mg, 30 mg and 50 mg. In ANAVEX2-73 Mid Dose arm, 44 patients were given oral capsules of ANAVEX2-73 once daily in an escalating dose of 10 mg, 20 mg, and 30 mg. In placebo group, 44 patients were given placebo capsules. Outcome measures included Cognitive Drug Research (CDR) Computerized Assessment System on Continuity of Attention; Change from Baseline to End of Treatment in Continuity of Attention as measured by Cognitive Drug Research (CDR) Computerized Assessment System Continuity of Attention; Number of participants with treatment-related adverse events as assessed by CTCAE v4.0 [Time Frame: 14 weeks]; Assessment of the safety and tolerability of ANAVEX2-73 compared to placebo; MDS-UPDRS Part III Total Score (Motor Scores); Change from baseline to End of Treatment as measured by MDS-UPDRS Part III Total Score (Motor Scores); SDS-CL-25 [Time Frame: 14 weeks]; Incidence of sleep disorders symptoms (SDS-CL-25); and DNA/RNA Sequencing. Since MDS-UPDRS is indicative of the motor activity for Parkinson Disease (PD), the trial can also identify the effects of ANAVEX® 2-73 on PD patients.
The trial enrolled 132 adults, ages 50-85, with PDD, and was successfully concluded in September 2020. Participants, recruited at multiple sites in Spain and Australia, were randomly assigned to one of two doses groups (with an escalating ANAVEX 2-73 dose up to 30 or 50 mg oral capsules) or to a placebo, once daily for 14 weeks (see FIG. 1 for details). The trial's main goals were to assess the therapy's safety and changes in patients' cognitive function, measured using the cognitive drug research computerized assessment system—a test that looks at multiple cognitive skills, such as choice reaction time (choosing between similar objects), vigilance, and episodic memory (remembering new personal experiences or shared information). Secondary goals included changes in patients' motor abilities—assessed with the Movement Disorders Society Unified Parkinson's Disease Rating Scale (MDS-UPDRS) Part III—and sleep quality. […] This sleep disorder is associated with greater cognitive impairment and a higher risk of dementia. […] After 14 weeks, the MDS-UPDRS total score dropped by 10.98 points (indicating an easing in disease severity) in the high-dose group and rose by 3.53 points in the placebo group. This represented an adjusted mean improvement of 14.51 points—surpassing the established, clinically meaningful 7.1 point-cut-off—and a relative improvement of 18.9% over 14 weeks. These findings highlight ANAVEX 2-73's ability to not only slow, but also reverse, symptoms that progress in Parkinson's disease, potentially fulfilling an urgent unmet medical need, Anavex stated in its release. […] After completing the PDD-001 trial, patients had the option of being treated with ANAVEX 2-73 for nearly one year in its extension study, called ANAVEX 2-73-PDD-EP-001 (NCT04575259).
Randomized, placebo-controlled clinical trial in 132 patients with Parkinson's disease with dementia (PDD) included prespecified biomarkers of response as well as Whole Exome Sequencing DNA data and full RNA exome expression data collection. […]

CN(C)CC1CCOC1(c1ccccc1)c1ccccc1.Cl (centres unmarked) [ANAVEX2-73, tetrahydro-N,N-dimethyl-2,2-diphenyl-3-furanmethanamine hydrochloride]
Dementia assessment, Quality of Episodic Memory (14-week trial, oral): dose-dependent, statistically significant improvement | REM sleep behavior disorder (14 weeks, previously reported results, confirmed): lessened REM sleep behavior disorder | Cognitive skills (CDR computerized assessment system, 14 weeks, previously reported results, confirmed): significantly improved several cognitive skills | MDS-UPDRS Part II response (MS4A4A Wild Type rs6591561 cohort (excluding rs6591561 homozygous mutation carriers)): strongest response | Response depending on patients' MS4A4A (rs6591561) carrier status (PDD-001 study): Different ANAVEX® 2-73 response | Motor and non-motor Parkinson's symptoms (MDS-UPDRS total score) (high dose (50 mg) once daily oral, 14 weeks): statistically significant and clinically meaningful reductions | Parkinson's assessment, MDS-UPDRS Total score (high oral dose once daily, 14-week trial): significant improvement | Safety (oral capsules once daily up to 30 or 50 mg, 14 weeks, previously reported results): generally safe
